Counter-ions that a name gives are not always drawn.

One may read the IC50 as the concentration needed to halve the response being measured. Read a high IC50 as weaker potency in that assay.

The first assay relates to 5HT uptake. Briefly: Inhibition of 5HT uptake in vitro (synaptosomal uptake of 3H-serotonin, rat cortical synaptosomes). In kind it is biochemical, rat (male Sprague-Dawley). The settings on record: 50 nM 3H-5HT, cortical synaptosomes, 37° C., 5 min. As for the experimental part:
This general procedure is set forth by Wong et al., in Drug Development Research 6:397-403 (1985).
Male Sprague-Dawley rats (110-150 g) from Harlan Industries (Cumberland, Ind.) were fed Purina Chow ad libitum for at least 3 days before being used in the studies. Rats were killed by decapitation. Whole brains were removed and dissected. Cerebral cortex was homogenized in 9 volumes of a medium containing 0.32M sucrose and 10 mM glucose. Crude synaptosomal preparations were isolated after differential centrifugation at 1,000 g for 10 min. and 17,000 g for 28 min. The final pellets were suspended in the same medium and kept in ice until use within the same day.
Synaptosomal uptake of ^3 H-serotonin(^3 H-5-hydroxytryptamine, ^3 H-5HT) was determined as follows. Cortical synaptosomes (equivalent to 1 mg of protein) were incubated at 37° C. for 5 min in 1 ml of Krebs-bicarbonate medium containing also 10 mM glucose, 0.1 mM iproniazid, 1 mM ascorbic acid, 0.17 mM EDTA and 50 nM ^3 H-5HT The reaction mixture was immediately diluted with 2 ml of ice-chilled Krebs-bicarbonatebuffer and filtered under vacuum with a cell harvester (Brandel, Gaithersburg, Md.). Filters were rinsed twice with approximately 5 ml of ice-chilled 0.9% saline and were transferred to a counting vial containing 10 ml of scintillation fluid (PCS, Amersham, Arlington Heights, Ill.). Radioactivity was measured by a liquid scintillation spectrophotometer. Accumulation of ^3 H-5HT at 4° C. represented the background and was subtracted from all samples.
The numbers in parentheses represent percent inhibition at 1000 nM.
Regarding `NC(CCOc1cccc2ccccc12)c1cccc(Cl)c1` (stereo not shown) [Example 12, 1-(3-Chlorophenyl)-3-(1-naphthalenyloxy)propanamine oxalate], the midpoint of inhibition, the IC50, lay at 150 nM.

`NC(CCOc1cccc2ccccc12)c1ccccc1Cl` (stereo not shown) [Example 10, 1-(2-Chlorophenyl)-3-(1-naphthalenyloxy)propanamine oxalate]: inhibition was half-maximal at 76 nM (IC50).

Compound `NC(CCOc1cccc2ccccc12)c1ccccc1C(F)(F)F` (stereo not shown) [Example 6, 1-[2-(Trifluoromethyl)phenyl]-3-(1-naphthalenyloxy)propanamine oxalate] registered an IC50 of 180 nM.

`CN(C)C(CCOc1ccc(Cl)c2ccccc12)c1ccccc1` (stereo not shown) [Example 34, N,N-Dimethyl-1-phenyl-3-(4-chloro-1-naphthalenyloxy)propanamine oxalate]: the half-maximal inhibitory concentration (IC50) was determined as 88 nM.

In the case of `COc1ccccc1C(CCOc1cccc2ccccc12)N(C)C` (stereo not shown) [Example 21, N,N-Dimethyl-1-(2-methoxyphenyl)-3-(1-naphthalenyloxy)propanamine oxalate], the half-maximal inhibitory concentration (IC50) was 16 nM.

The compound `COc1cccc(C(N)CCOc2cccc3ccccc23)c1` (stereo not shown) [Example 18, 1-(3-Methoxyphenyl)-3-(1-naphthalenyloxy)propanamine hydrochloride] returned a concentration for half-maximal inhibition (IC50) of 84 nM.

Compound `CN(C)C(CCOc1cccc2ccccc12)c1ccccc1` (single isomer, unassigned) [Example 36, (+)-N,N-Dimethyl-1-phenyl-3-(1-naphthalenyloxy)propanamine (+)-tartrate] showed an IC50 of 10 nM.

As for `CN(C)C(CCOc1cccc2ccccc12)c1ccccc1Cl` (stereo not shown) [Example 11, N,N-Dimethyl-1-(2-chlorophenyl)-3-(1-naphthalenyloxy)propanamine oxalate], the IC50 was 33 nM.

In turn, `Cc1ccc(OCCC(N)c2ccccc2)c2ccccc12` (stereo not shown) [Example 1, 1-Phenyl-3-(4-methyl-1-naphthalenyloxy)propanamine oxalate] gave an IC50 of 90 nM.

`CN(C)C(CCOc1cccc2ccccc12)c1ccc(F)cc1` (stereo not shown) [Example 25, N,N-Dimethyl-1-(4-fluorophenyl)-3-(1-naphthalenyloxy)propanamine oxalate] returned an IC50 of 50 nM.

As for `COc1ccc(C(N)CCOc2cccc3ccccc23)cc1` (stereo not shown) [Example 16, 1-(4-Methoxyphenyl)-3-(1-naphthalenyloxy)propanamine oxalate], inhibition was half-maximal at 100 nM (IC50).

The compound `Cc1ccc(C(CCOc2cccc3ccccc23)N(C)C)cc1` (stereo not shown) [Example 26, N,N-Dimethyl-1-(4-methylphenyl)-3-(1-naphthalenyloxy)propanamine oxalate] gave an IC50 of 80 nM.

`CNC(CCOc1cccc2ccccc12)c1ccc2c(c1)OCO2` (stereo not shown) [Example 24, oxalate] showed an IC50 of 47 nM.

In turn, `CN(C)C(CCOc1ccc(C(F)(F)F)c2ccccc12)c1ccccc1` (stereo not shown) [Example 29, N,N-Dimethyl-1-phenyl-3-[4-(trifluoromethyl)-1-naphthalenyloxy)propanamine oxalate] yielded an IC50 of 800 nM.

Compound `NC(CCOc1cccc2ccccc12)c1ccccc1` (stereo not shown) [Example 35, 1-Phenyl-3-(1-naphthalenyloxy)propanamine oxalate] showed a 50% inhibitory concentration (IC50) of 80 nM.

The compound `CN(C)C(CCOc1cccc2ccccc12)c1ccccc1C(F)(F)F` (stereo not shown) [Example 7, N,N-Dimethyl-1-[2-(trifluoromethyl)phenyl]-3-(1-naphthalenyloxy)propanamineoxalate] displayed an IC50 of 260 nM.

In turn, `CNC(CCOc1cccc2ccccc12)c1ccccc1` (stereo not shown) [Example 33, N-Methyl-1-phenyl-3-(1-naphthalenyloxy)propanamine oxalate] registered a half-inhibitory concentration (IC50) of 35 nM.

For the compound `CN(C)C(CCOc1cccc2ccccc12)c1ccc(Cl)cc1` (stereo not shown) [Example 15, N,N-Dimethyl-1-(4-chlorophenyl)-3-(1-naphthalenyloxy)propanamine oxalate], the IC50 was found to be 110 nM.

With `COc1cccc(C(CCOc2cccc3ccccc23)N(C)C)c1` (stereo not shown) [Example 19, N,N-Dimethyl-1-(3-methoxyphenyl)-3-(1-naphthalenyloxy)propanamine oxalate], 29 nM corresponded to half-maximal inhibition (IC50).

For the compound `COc1ccc(C(CCOc2cccc3ccccc23)N(C)C)cc1` (stereo not shown) [Example 17, N,N-Dimethyl-1-(4-methoxyphenyl)-3-(1-naphthalenyloxy)propanamine oxalate], the IC50 amounted to 32 nM.

Take `Cc1ccc(OCCC(c2ccccc2)N(C)C)c2ccccc12` (stereo not shown) [Example 2, N,N-Dimethyl-1-phenyl-3-(4-methyl-1-naphthalenyloxy)propanamine oxalate]: the IC50 amounted to 25 nM.

As to `Cc1cccc(C(CCOc2cccc3ccccc23)N(C)C)c1` (stereo not shown) [Example 32, N,N-Dimethyl-1-(3-methylphenyl)-3-(1-naphthalenyloxy)propanamine oxalate], half-maximal inhibition (IC50) required 13 nM.

Take `CN(C)C(CCOc1cccc2ccccc12)c1ccccc1` (stereo not shown) [Example 27, N,N-Dimethyl-1-phenyl-3-(1-naphthalenyloxy)propanamine oxalate]: the IC50 is 10 nM.

`CN(C)C(CCOc1cccc2ccccc12)c1cccc(Cl)c1` (stereo not shown) [Example 13, N,N-Dimethyl-1-(3-chlorophenyl)-3-(1-naphthalenyloxy)propanamine oxalate] came in with a half-maximal inhibitory concentration (IC50) of 72 nM.

Regarding `CNC(CCOc1ccc(C)c2ccccc12)c1ccccc1` (stereo not shown) [Example 3, N-Methyl-1-phenyl-3-(4-methyl-1-naphthalenyloxy)propanamine oxalate], the IC50 was 37 nM.

Compound `CN(C)C(CCOc1cccc2ccccc12)c1ccc(C(F)(F)F)cc1` (stereo not shown) [Example 31, N,N-Dimethyl-1-[4-(trifluoromethyl)phenyl]-3-(1-naphthalenyloxy)propanamineoxalate] yielded an IC50 of 195 nM.

Regarding `Cc1ccccc1C(CCOc1cccc2ccccc12)N(C)C` (stereo not shown) [Example 30, N,N-Dimethyl-1-(2-methylphenyl)-3-(1-naphthalenyloxy)propanamine oxalate], it took 10 nM to reach half-maximal inhibition (IC50).

Take `CN(C)C(CCOc1cccc2ccccc12)c1ccccc1` (single isomer, unassigned) [Example 37, (-)-N,N-Dimethyl-1-phenyl-3-(1-naphthalenyloxy)propanamine (-)-tartrate]: the concentration for half-maximal inhibition (IC50) is 35 nM.

Regarding `NC(CCOc1cccc2ccccc12)c1ccc(Cl)cc1` (stereo not shown) [Example 14, 1-(4-Chlorophenyl)-3-(1-naphthalenyloxy)propanamine oxalate], the half-inhibitory concentration (IC50) was determined as 400 nM.

`CN(C)C(CCOc1cccc2ccccc12)c1cccc(C(F)(F)F)c1` (stereo not shown) [Example 9, N,N-Dimethyl-1-[3-(trifluoromethyl)phenyl]-3-(1-naphthalenyloxy)propanamineoxlate] displayed an IC50 of 500 nM.

On to `COc1ccc(OCCC(c2ccccc2)N(C)C)c2ccccc12` (stereo not shown) [Example 5, N,N-Dimethyl-1-phenyl-3-(4-methoxy-1-naphthalenyloxy)propanamine oxalate], for which the 50% inhibitory concentration (IC50) came out at 210 nM.

Staying with this assay, now noted: at 1000 nM; numbers in parentheses; 50 nM 3H-5HT, 37° C., 5 min.
As to `COc1ccc(OCCC(N)c2ccccc2)c2ccccc12` (stereo not shown) [Example 4, 1-Phenyl-3-(4-methoxy-1-naphthalenyloxy)propanamine oxalate], the “percent inhibition at 1000 nM” value is recorded as 39%.

For the compound `COc1ccccc1C(N)CCOc1cccc2ccccc12` (stereo not shown) [Example 20, 1-(2-Methoxyphenyl)-3-(1-naphthalenyloxy)propanamine oxalate], the “percent inhibition at 1000 nM” value is given as 25%.

Consider `NC(CCOc1cccc2ccccc12)c1cccc(C(F)(F)F)c1` (stereo not shown) [Example 8, 1-[3-(Trifluoromethyl)phenyl]-3-(1-naphthalenyloxy)propanamine oxalate], for which the “percent inhibition at 1000 nM” value turned out to be 43%.
